Reference: US20250091994A1, “RAS/RAF BINDING INHIBITOR COMPOUND” (NATIONAL UNIVERSITY CORPORATION KOBE UNIVERSITY, priority 2021, published 2025)

Key:
[1] = test system: phosphorylated ERK (pERK) in HL60 cells; assay: Ras-Raf signaling inhibition at culture cell level, pERK; type: cell-based; details: Homo sapiens, HL-60; HL60 (N-RasQ61L), 1 μM test compound, 3 hours
Experimental: (§1) The Ras-Raf signaling inhibitory activity of the compound of the present invention at a culture cell level was evaluated by the following method.
(§2) The HL60 cells described in Test Example 2 suspended in a medium containing 0.5% (v/v) FBS with each compound solution (final DMSO concentration: 1%), were seeded on a 12-well plate (2 to 4×10^5 cells/well), and the resulting mixture was then cultured at 37° C. in the presence of 5% CO2 for 3 hours.
(§3) After completion of the cell culture, proteins were extracted from the cells, using RIPA Buffer (Nacalai Tesque) containing a mixture of protease inhibitors and phosphatase inhibitors. An equivalent amount of protein was separated by standard SDS-PAGE and was then transferred onto a PVDF membrane. In order to detect the activation (phosphorylation) of MEK and ERK, downstream molecules of the Ras-Raf signaling pathway, the membrane was probed with 1000-fold diluted primary antibodies {phosphorylated MEK (pMEK: #9121), phosphorylated ERK (pERK: #9101), total MEK (tMEK: #9122), and total ERK (tERK: 9102); all from Cell signaling}, and then with a 1000-fold diluted horseradish peroxidase-labeled secondary antibody against rabbit immunoglobulin G. The immunoreactive signals were colored with EzWestLumi One (ATTO), and were then detected by Fusion FX (Vilber). Signal intensity was quantified by pixel counting. Inhibition by the test compound was determined according to the following equation: […]

[2] = test system: phosphorylated MEK (pMEK) in HL60 cells; assay: Ras-Raf signaling inhibition at culture cell level, pMEK; type: cell-based; details: Homo sapiens, HL-60; HL60 (N-RasQ61L), 1 μM test compound, 3 hours
Experimental: as §1, §2, §3

`CC(=O)N1/C(=C\c2nc3cc(C(=O)N4CCOCC4)ccc3s2)C(=O)c2ccccc21` [Example 47, (Z)-1-acetyl-2-((5-(morpholine-4-carbonyl)benzo [d]thiazol-2-yl)-methylene)-indolin-3-one] gave an inhibition at 1 µM [1] of 94% and an inhibition at 1 µM [2] of 88%.
